“And” between values parts separate entries of the source, which are not always exact repeats. Equal values may be shown once.
Tests used:
[1] = test system: patients with Duchenne muscular dystrophy (DMD) amenable to exon 51 skipping; assay: Ability to rise independently from supine / rise time; format: in vivo, human
Excerpt: In some embodiments, muscle function in a DMD patient may be assessed for ability to rise from a supine position without external assistance (independently). In some embodiments, the assessment can include whether or not the subject has the ability to rise from a supine position. In some embodiments, the assessment includes the time (e.g., in seconds) it takes for the patient to rise from a supine position without external assistance. Such measurements are well known to the skilled artisan and are described in, e.g., Bushby and Connor (2011) Clin Investig (Lond.) 1(9):1217-1235 and Henricson et al. (2013) Muscle Nerve 48(1):55-67, the disclosures of each of which are incorporated herein by reference in their entirety. In some embodiments, a patient treated by any of the methods described herein has lost the ability to rise independently from a supine position prior to beginning treatment with eteplirsen. In some embodiments, the patient lost the ability to rise independently from a supine position at least one (e.g., at least two, three, four, five, six, seven, eight, nine, 10, 11, 12, 16, 18, 20, 24, or more) month(s) prior to beginning treatment with eteplirsen. In some embodiments, a patient treated by any of the methods described herein loses the ability to rise independently from a supine position while being treated with eteplirsen. In some embodiments, the patient loses the ability to rise independently from a supine position at least one (e.g., at least two, three, four, five, six, seven, eight, nine, 10, 11, 12, 16, 18, 20, 24, 30, or 36 or more) month(s) after commencing treatment with eteplirsen.
The 6MWT was administered using the protocol established for patients with DMD by McDonald, et al. (Muscle Nerve, 2010; 42:966-74; Muscle Nerve, 2010; 41:500-10 herein incorporated by reference), except there was no use of the StepWatch actimetry device. Exploratory functional outcomes included the North Star Ambulatory Assessment, quantitative muscle testing, the 9-Hole Peg Test, pulmonary function testing (PFT), timed function tests, and assessment of quality of life.

[2] = Safety and tolerability monitoring, Study 201/202; format: in vivo, human
Protocol: Safety was assessed by evaluation of adverse events, vital signs, physical examinations, electrocardiograms, echocardiograms, and clinical laboratory testing. In addition, kidney function was monitored via regular assessments of serum cystatin C and urine cystatin C and KIM-1.

[3] = individual ambulatory subjects (n=10), year of loss of ability in brackets

RNA, [P-deoxy-P-(dimethylamino)](2′,3′-dideoxy-2′,3′-imino-2′,3′-seco)(2′a→5′)(C-m5U-C-C-A-A-C-A-m5U-C-A-A-G-G-A-A-G-A-m5U-G-G-C-A-m5U-m5U-m5U-C-m5U-A-G), 5′-[P-[4-[[2-[2-(2-hydroxyethoxy)ethoxy]ethoxy]carbonyl]-1-piperazinyl]-N,N-dimethylphosphonamidate] (antisense CTCCAACATCAAGGAAGATGGCATTTCTAG; all phosphorodiamidate morpholino (PMO); 5' piperazinyl triethylene glycol carbamate tail on phosphonamidate, further chemistry not fully specified) [eteplirsen]
number of patients who lost the ability to rise without external support ([1]; from years 1 to 3): four
Year 3 Rise Time [1, 3]: 24.1 s and 17.9 s and 13.1 s and 8.9 s and 8.2 s and 6.2 s
Year 3 Rise Time(s) [1, 3]: Unable to rise
drug-related serious adverse events ([2]; over 2300 doses, 192 week treatment period): no drug-related serious adverse events
chemistries: hematologic, renal, coagulation or liver functions ([2]; through 216 weeks of treatment): no clinically significant changes in hematologic, renal, coagulation or liver functions
electrocardiograms, echocardiograms and PFTs ([2]; through 216 weeks of treatment): remained stable
physical examination and vital signs ([2]; through 216 weeks of treatment): no clinically significant changes
tolerability: adverse events, discontinuations, missed doses ([2]; through 216 weeks of treatment): well tolerated with no treatment-related adverse events, serious adverse events, discontinuations or missed doses
